# Tested on: 996289-038-R-J1-PDC complex spheroid viability
# Assay: Anticancer human tumor 996289-038-R-J1-PDC patient-derived colon adenocarcinoma cell line growth inhibition [CLK]
# Settings: for IC50: curve of first compound; for viability, T/C: stronger effect = lower value
# In short: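 Patient-derived tumor cells grown as complex spheroids with HUVEC endothelial cells and mesenchymal stem cells, treated with drug combinations. Concentrations descend in half-log steps from near clinical Cmax, or from 10 microM if Cmax unknown.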
# [1] = second compound 0.0316 µM, first compound 0.00949 µM
# [2] = second compound 0.0316 µM, first compound 0.03 µM
# [3] = second compound 0.0316 µM, first compound 0.0949 µM
# [4] = second compound 0.0316 µM, first compound 0.3 µM
# [5] = second compound 0.1 µM, first compound 0.00949 µM
# [6] = second compound 0.1 µM, first compound 0.03 µM
# [7] = second compound 0.1 µM, first compound 0.0949 µM
# [8] = second compound 0.1 µM, first compound 0.3 µM
# [9] = second compound 0.316 µM, first compound 0.00949 µM
# [10] = second compound 0.316 µM, first compound 0.03 µM
# [11] = second compound 0.316 µM, first compound 0.0949 µM
# [12] = second compound 0.316 µM, first compound 0.3 µM
# [13] = second compound 1 µM, first compound 0.00949 µM
# [14] = second compound 1 µM, first compound 0.03 µM
# [15] = second compound 1 µM, first compound 0.0949 µM
# [16] = second compound 1 µM, first compound 0.3 µM
# [17] = second compound 3.16 µM, first compound 0.00949 µM
# [18] = second compound 3.16 µM, first compound 0.03 µM
# [19] = second compound 3.16 µM, first compound 0.0949 µM
# [20] = second compound 3.16 µM, first compound 0.3 µM
# [21] = second compound 10 µM, first compound 0.00949 µM
# [22] = second compound 10 µM, first compound 0.03 µM
# [23] = second compound 10 µM, first compound 0.0949 µM
# [24] = second compound 10 µM, first compound 0.3 µM
# [25] = second compound 0.0316 µM, first compound 0.0316 µM
# [26] = second compound 0.0316 µM, first compound 0.1 µM
# [27] = second compound 0.0316 µM, first compound 0.316 µM
# [28] = second compound 0.0316 µM, first compound 1 µM
# [29] = second compound 0.0316 µM, first compound 3.16 µM
# [30] = second compound 0.0316 µM, first compound 10 µM
# [31] = second compound 0.1 µM, first compound 0.0316 µM
# [32] = second compound 0.1 µM, first compound 0.1 µM
# [33] = second compound 0.1 µM, first compound 0.316 µM
# [34] = second compound 0.1 µM, first compound 1 µM
# [35] = second compound 0.1 µM, first compound 3.16 µM
# [36] = second compound 0.1 µM, first compound 10 µM
# [37] = second compound 0.316 µM, first compound 0.0316 µM
# [38] = second compound 0.316 µM, first compound 0.1 µM
# [39] = second compound 0.316 µM, first compound 0.316 µM
# [40] = second compound 0.316 µM, first compound 1 µM
# [41] = second compound 0.316 µM, first compound 3.16 µM
# [42] = second compound 0.316 µM, first compound 10 µM
# [43] = second compound 1 µM, first compound 0.0316 µM
# [44] = second compound 1 µM, first compound 0.1 µM
# [45] = second compound 1 µM, first compound 0.316 µM
# [46] = second compound 1 µM, first compound 1 µM
# [47] = second compound 1 µM, first compound 3.16 µM
# [48] = second compound 1 µM, first compound 10 µM
# [49] = second compound 3.16 µM, first compound 0.0316 µM
# [50] = second compound 3.16 µM, first compound 0.1 µM
# [51] = second compound 3.16 µM, first compound 0.316 µM
# [52] = second compound 3.16 µM, first compound 1 µM
# [53] = second compound 3.16 µM, first compound 3.16 µM
# [54] = second compound 3.16 µM, first compound 10 µM
# [55] = second compound 10 µM, first compound 0.0316 µM
# [56] = second compound 10 µM, first compound 0.1 µM
# [57] = second compound 10 µM, first compound 0.316 µM
# [58] = second compound 10 µM, first compound 1 µM
# [59] = second compound 10 µM, first compound 3.16 µM
# [60] = second compound 10 µM, first compound 10 µM
# 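Further: spheroids exposed to the agents for 7 days before readout.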
smiles,measurement,setting,value
C=CC(=O)Nc1cc(Nc2nccc(-c3cn(C)c4ccccc34)n2)c(OC)cc1N(C)CCN(C)C + CNC(=O)c1ccc(Nc2nc(OC3CCCC3)c3c(-c4ccc5nc(C)oc5c4)c[nH]c3n2)c(OC)c1,IC50,second compound 0.0316 µM,> 0.3 µM
same,IC50,second compound 0.1 µM,> 0.3 µM
same,IC50,second compound 0.316 µM,> 0.3 µM
same,IC50,second compound 1 µM,0.137 µM
same,IC50,second compound 3.16 µM,0.0918 µM
same,IC50,second compound 10 µM,0.0569 µM
same,"viability, T/C","second compound 0.0316 µM, first compound 0.000949 µM",118%
same,"viability, T/C","second compound 0.0316 µM, first compound 0.003 µM",123%
same,"viability, T/C",[1],112%
same,"viability, T/C",[2],117%
same,"viability, T/C",[3],113%
same,"viability, T/C",[4],85.8%
same,"viability, T/C","second compound 0.1 µM, first compound 0.000949 µM",109%
same,"viability, T/C","second compound 0.1 µM, first compound 0.003 µM",124%
same,"viability, T/C",[5],106%
same,"viability, T/C",[6],109%
same,"viability, T/C",[7],110%
same,"viability, T/C",[8],77.4%
same,"viability, T/C","second compound 0.316 µM, first compound 0.000949 µM",74%
same,"viability, T/C","second compound 0.316 µM, first compound 0.003 µM",74.3%
same,"viability, T/C",[9],72.7%
same,"viability, T/C",[10],69.4%
same,"viability, T/C",[11],68.8%
same,"viability, T/C",[12],52.5%
same,"viability, T/C","second compound 1 µM, first compound 0.000949 µM",69.7%
same,"viability, T/C","second compound 1 µM, first compound 0.003 µM",67.5%
same,"viability, T/C",[13],62%
same,"viability, T/C",[14],61.6%
same,"viability, T/C",[15],53.2%
same,"viability, T/C",[16],43.1%
same,"viability, T/C","second compound 3.16 µM, first compound 0.000949 µM",64.2%
same,"viability, T/C","second compound 3.16 µM, first compound 0.003 µM",60.8%
same,"viability, T/C",[17],56.5%
same,"viability, T/C",[18],53%
same,"viability, T/C",[19],53.1%
same,"viability, T/C",[20],43.8%
same,"viability, T/C","second compound 10 µM, first compound 0.000949 µM",60.9%
same,"viability, T/C","second compound 10 µM, first compound 0.003 µM",55.9%
same,"viability, T/C",[21],55%
same,"viability, T/C",[22],54.7%
same,"viability, T/C",[23],47.4%
same,"viability, T/C",[24],38.2%
CC1(C)CCC(CN2CCN(c3ccc(C(=O)NS(=O)(=O)c4ccc(NCC5CCOCC5)c([N+](=O)[O-])c4)c(Oc4cnc5[nH]ccc5c4)c3)CC2)=C(c2ccc(Cl)cc2)C1 + CNC(=O)c1ccc(Nc2nc(OC3CCCC3)c3c(-c4ccc5nc(C)oc5c4)c[nH]c3n2)c(OC)c1,IC50,second compound 0.0316 µM,9.12 µM
same,IC50,second compound 0.1 µM,8.96 µM
same,IC50,second compound 0.316 µM,7.56 µM
same,IC50,second compound 1 µM,6.26 µM
same,IC50,second compound 3.16 µM,5.76 µM
same,IC50,second compound 10 µM,5.18 µM
same,"viability, T/C",[25],128%
same,"viability, T/C",[26],110%
same,"viability, T/C",[27],115%
same,"viability, T/C",[28],127%
same,"viability, T/C",[29],139%
same,"viability, T/C",[30],43.5%
same,"viability, T/C",[31],125%
same,"viability, T/C",[32],123%
same,"viability, T/C",[33],138%
same,"viability, T/C",[34],119%
same,"viability, T/C",[35],134%
same,"viability, T/C",[36],41.9%
same,"viability, T/C",[37],80.2%
same,"viability, T/C",[38],82.7%
same,"viability, T/C",[39],88.7%
same,"viability, T/C",[40],90.7%
same,"viability, T/C",[41],103%
same,"viability, T/C",[42],37.5%
same,"viability, T/C",[43],67.2%
same,"viability, T/C",[44],67.7%
same,"viability, T/C",[45],74%
same,"viability, T/C",[46],74.7%
same,"viability, T/C",[47],100%
same,"viability, T/C",[48],31.6%
same,"viability, T/C",[49],65%
same,"viability, T/C",[50],61.7%
same,"viability, T/C",[51],67.1%
same,"viability, T/C",[52],70.7%
same,"viability, T/C",[53],84.1%
same,"viability, T/C",[54],32%
same,"viability, T/C",[55],61.5%
same,"viability, T/C",[56],59.1%
same,"viability, T/C",[57],61.3%
same,"viability, T/C",[58],72.7%
same,"viability, T/C",[59],81.3%
same,"viability, T/C",[60],27%
NC(=O)C(=Cn1cnc(-c2cc(C(F)(F)F)cc(C(F)(F)F)c2)n1)c1cncnc1 + CNC(=O)c1ccc(Nc2nc(OC3CCCC3)c3c(-c4ccc5nc(C)oc5c4)c[nH]c3n2)c(OC)c1,IC50,second compound 0.0316 µM,0.101 µM
same,IC50,second compound 0.1 µM,0.077 µM
same,IC50,second compound 0.316 µM,0.0405 µM
same,IC50,second compound 1 µM,0.013 µM
same,IC50,second compound 3.16 µM,< 0.00949 µM
same,IC50,second compound 10 µM,< 0.00949 µM
same,"viability, T/C",[1],98.9%
same,"viability, T/C",[2],79.4%
same,"viability, T/C",[3],50.9%
same,"viability, T/C",[4],31.2%
same,"viability, T/C","second compound 0.0316 µM, first compound 0.949 µM",20%
same,"viability, T/C","second compound 0.0316 µM, first compound 3 µM",19.5%
same,"viability, T/C",[5],93.8%
same,"viability, T/C",[6],71.5%
same,"viability, T/C",[7],45.8%
same,"viability, T/C",[8],27.6%
same,"viability, T/C","second compound 0.1 µM, first compound 0.949 µM",17.7%
same,"viability, T/C","second compound 0.1 µM, first compound 3 µM",19%
same,"viability, T/C",[9],68.9%
same,"viability, T/C",[10],55.2%
same,"viability, T/C",[11],33.8%
same,"viability, T/C",[12],15%
same,"viability, T/C","second compound 0.316 µM, first compound 0.949 µM",13.4%
same,"viability, T/C","second compound 0.316 µM, first compound 3 µM",13.8%
same,"viability, T/C",[13],53.7%
same,"viability, T/C",[14],40.1%
same,"viability, T/C",[15],19.5%
same,"viability, T/C",[16],8.6%
same,"viability, T/C","second compound 1 µM, first compound 0.949 µM",8.98%
same,"viability, T/C","second compound 1 µM, first compound 3 µM",8.12%
same,"viability, T/C",[17],47.8%
same,"viability, T/C",[18],35.6%
same,"viability, T/C",[19],15.5%
same,"viability, T/C",[20],7.76%
same,"viability, T/C","second compound 3.16 µM, first compound 0.949 µM",6.08%
same,"viability, T/C","second compound 3.16 µM, first compound 3 µM",5.36%
same,"viability, T/C",[21],44.5%
same,"viability, T/C",[22],33.8%
same,"viability, T/C",[23],12.8%
same,"viability, T/C",[24],8.08%
same,"viability, T/C","second compound 10 µM, first compound 0.949 µM",5.49%
same,"viability, T/C","second compound 10 µM, first compound 3 µM",4.93%
Nc1ccccc1NC(=O)c1ccc(CNC(=O)OCc2cccnc2)cc1 + CNC(=O)c1ccc(Nc2nc(OC3CCCC3)c3c(-c4ccc5nc(C)oc5c4)c[nH]c3n2)c(OC)c1,IC50,second compound 0.0316 µM,7.09 µM
same,IC50,second compound 0.1 µM,6.91 µM
same,IC50,second compound 0.316 µM,4.11 µM
same,IC50,second compound 1 µM,1.7 µM
same,IC50,second compound 3.16 µM,1.88 µM
same,IC50,second compound 10 µM,1.84 µM
same,"viability, T/C",[25],118%
same,"viability, T/C",[26],103%
same,"viability, T/C",[27],113%
same,"viability, T/C",[28],91.8%
same,"viability, T/C",[29],70.7%
same,"viability, T/C",[30],41.3%
same,"viability, T/C",[31],118%
same,"viability, T/C",[32],110%
same,"viability, T/C",[33],120%
same,"viability, T/C",[34],97.9%
same,"viability, T/C",[35],71%
same,"viability, T/C",[36],40.2%
same,"viability, T/C",[37],85.5%
same,"viability, T/C",[38],82.9%
same,"viability, T/C",[39],74.3%
same,"viability, T/C",[40],75.5%
same,"viability, T/C",[41],54%
same,"viability, T/C",[42],31.3%
same,"viability, T/C",[43],70.6%
same,"viability, T/C",[44],70.7%
same,"viability, T/C",[45],66.7%
same,"viability, T/C",[46],59.9%
same,"viability, T/C",[47],38.8%
same,"viability, T/C",[48],12.5%
same,"viability, T/C",[49],63.8%
same,"viability, T/C",[50],66.1%
same,"viability, T/C",[51],63.8%
same,"viability, T/C",[52],62.2%
same,"viability, T/C",[53],40.1%
same,"viability, T/C",[54],8.12%
same,"viability, T/C",[55],60.8%
same,"viability, T/C",[56],63.3%
same,"viability, T/C",[57],57.2%
same,"viability, T/C",[58],62.6%
same,"viability, T/C",[59],40.3%
same,"viability, T/C",[60],7.43%

# Source: PubChem BioAssay AID2060600 (Molecular Pharmacology Branch, DTP, NCI, 2025)
